Source: patent publication US8481011B2, “Use of polyunsaturated compounds as whitening agents” (Pierre Fabre Dermo-Cosmetique, priority 2005, dated 2013)

Tests used:
Assay type in all cases: cell-based
[1] = tested on: BDV II murine keratinocytes; assay: MTT cellular respiration toxicity test on BDV II keratinocytes; conditions: for % MTT / IC50: BDV II murine keratinocytes; for % MTT: concentration 10 μM, cell viability; for IC50: toxicity; for toxicity ranking on BDV II keratinocytes: ranking in words, viability according to concentration
Source text: (§1) The objective of these tests is to measure the toxicity of the new retinoids on keratinocyte and melanocyte cells.
(§2) The method used is a cellular respiration test with the MTT (thiazolile blue) in order to assess cells that are still living.
(§3) The MTT test gives a cellular respiration index; this involves a substrate of dehydrogenases in general and dehydrogenase succinate in particular. The MTT, yellow, partially soluble in water, is reduced in a violet compound, insoluble in water, but soluble in organic solvents (DMSO).
(§4) Prepare a 12 mM solution (5 mg/ml) of MTT in water or the culture medium.
(§5) Dilute this solution to 1:10 in the supernatant fluid or suspension of cells (final MTT 1.2 mM or 0.5 mg/ml), then leave to incubate for 3 hours at 37° C.
(§6) Aspirate the supernatant fluid, the dissolve the violet crystals of formazan MTT in DMSO.
(§7) Read the optical density of the solution at 550 nm (dilute beforehand as required).
(§8) Calibration line: MTT formazan 0-200 μM.

B16 murine melanocytes [2] = assay: MTT cellular respiration toxicity test on B16 melanocytes; conditions: for IC50: toxicity; for % MTT: concentration 10 μM, cell viability
Source text: as §1, §2, §3, §4, §5, §6, §7, §8

B16 murine melanocytes [3] = assay: Study of depigmenting activity (melanin dosage); conditions: at infratoxic doses, in words
Experimental: The objective of these tests is to measure the depigmenting activity of new retinoids according to their concentration.
The melanin is dosed according to the method described by S. Besson et al., Dermatology Archives. 133:331-336 (1997)′.
Digestion plug: 100 mM NaCl, to mm-Tri-HCl, 1% SDS, 50 mM EDTA, pH 8.
For 50 ml: 292 mg NaCl, 299 mg tris acid, 73 mg tris base, 931 mg EDTA disodium dehydrate, 500 mg SDS, adjust pH (≈5.5) to 8.0 with concentrated NaOH.
K proteinase 10 mg/ml in the digestion plug.
Prepare tubes containing synthetic melanin at concentrations of between 2.5 and 80 μg/ml in the DMSO.
For the cells, determine the protein concentration beforehand, centrifuge in 2 ml tubes and remove the supernatant.
In 2 ml tubes containing a cell remainder, add 300 μl of digestion buffer and 3 μl of K proteinase.
Incubate for 2 hours at 50° C., then a night at 37° C.
Top up the volume to 1 ml with water, then sound test.
Centrifuge for 10 minutes at 20,000 g, drain off all the supernatant (clear) then dissolve the dry melanin remainder in 500-1000 μl of DMSO.
Measure the absorbency at 375 nm and check the spectrum.

Structure (SMILES)	% MTT [1]	IC50 ([1]; Mus musculus, Keratinocyte)	toxicity ranking on BDV II keratinocytes [1]	IC50 (B16 murine melanocytes [2]; Mus musculus, Melanocyte)	% MTT (B16 murine melanocytes [2])	IC50 [1]	IC50 (B16 murine melanocytes [2])	depigmenting activity (melanin) (B16 murine melanocytes [3])
CC1=C(/C=C/C(C)=C/C=C/C(C)=C/C(=O)O)C(C)(C)CCC1O (centres unmarked) [Example 7, (2E,4E,6E,8E)-9-[3-(3-hydroxy)-2,6,6-trimethyl-cyclohex-1-enyl]-3,7-dimethyl-nona-2,4,6,8-tetraenoic acid]	86%	> 100 µM	least toxic	35 µM	69%			
CC1=C(/C=C/C(C)=C/C=C/C(C)=C/C(=O)O)C(C)(C)CCC1=O [Example 405, 4-oxoretinoic acid]	78%				76%	> 100 µM	> 100 µM	
CC(=O)OC1CCC(C)(C)C(/C=C/C(C)=C/C=C/C(C)=C/C(=O)OC(C)(C)C)=C1C (centres unmarked) [Example 8, tert-butylic ester of (2E,4E,6E,8E)-9-[3-(3-acetoxy)-2,6,6-trimethyl-cyclohex-1-enyl]-3,7-dimethyl-nona-2,4,6,8-tetraenoic acid]	82%	> 100 µM	least toxic	60 µM	82%			net depigmenting efficacy promotes
CC1=C(/C=C/C(C)=C/C=C/C(C)=C/C(=O)OC(C)(C)C)C(C)(C)CCC1O (centres unmarked) [Example 4, tert-butylic ester of (2E,4E,6E,8E)-9-(3-hydroxy-2,6,6-trimethyl-cyclohex-1-enyl)-3,7-dimethyl-nona-2,4,6,8-tetraenoic acid]	84%	70 µM		20 µM	62%			
CC(=O)OC/C=C(C)/C=C/C=C(C)/C=C/C1=C(C)C(=O)CCC1(C)C [Example 11, (2E,4E,6E,8E)-9-[3-(3-oxo)-2,6,6-trimethyl-cyclohex-1-enyl]-3,7-dimethyl-nona-2,4,6,8-tetraenyl acetate]	60%	30 µM		70 µM	86%			
COC(=O)/C=C(C)/C=C/C=C(C)/C=C/C1=C(C)C(=O)CCC1(C)C [Example 5, Methylic ester of (2E,4E,6E,8E)-9-[3-(3-oxo)-2,6,6-trimethyl-cyclohex-1-enyl]-3,7-dimethyl-nona-2,4,6,8-tetraenoic acid]	59%		then examples 5 and 6		86%	15 µM	60 µM	net depigmenting efficacy promotes
CC1=C(/C=C/C(C)=C/C=C/C(C)=C/C(=O)OC(C)(C)C)C(C)(C)CCC1=O [Example 3, tert-butylic ester of (2E,4E,6E,8E)-3,7-dimethyl-9-(2,6,6-trimethyl-3-oxo-cyclohex-1-enyl)-nona-2,4,6,8-tetraenoic acid]	85%	60 µM		30 µM	80%			net depigmenting efficacy promotes
CC1=C(/C=C/C(C)=C/C=C/C(C)=C/C(=O)O)C(C)(C)CCC1 [RA, Retinoic acid, reference compound]	40%	3 µM		10 µM	50%			
